Assay results: PMC10582325 (Frontiers in Pharmacology, 2023)
Read-outs that look alike come from different tables or passages of the source.

Experiments:
[1] = Plasma concentration 3 h post dose in murine model of tuberculosis; format: in vivo, BALB/c mice infected with M. tuberculosis H37Rv; conditions: TB model
CYP2C19 = CYP2C19 (Homo sapiens, UniProt P33261); test: Direct CYP inhibition in human liver microsomes with marker probe substrates; conditions: read-out: Inhibition, IC50; HLM, CYP2C19 probe substrate
CYP2D6 = CYP2D6 (Homo sapiens, UniProt P10635); test: as above; conditions: read-out: Inhibition, IC50; HLM, CYP2D6 probe substrate
CYP3A4 = CYP3A4 (Homo sapiens, UniProt P08684); conditions: for IC50: read-out: Inhibition, IC50, HLM
CYP2B6 = target: T1, CYP2B6 (Homo sapiens, UniProt P20813); test: Direct CYP inhibition in human liver microsomes with marker probe substrates; format: in vitro ADME; conditions: HLM, CYP2B6 probe substrate
T1 sequence (P20813 1-491): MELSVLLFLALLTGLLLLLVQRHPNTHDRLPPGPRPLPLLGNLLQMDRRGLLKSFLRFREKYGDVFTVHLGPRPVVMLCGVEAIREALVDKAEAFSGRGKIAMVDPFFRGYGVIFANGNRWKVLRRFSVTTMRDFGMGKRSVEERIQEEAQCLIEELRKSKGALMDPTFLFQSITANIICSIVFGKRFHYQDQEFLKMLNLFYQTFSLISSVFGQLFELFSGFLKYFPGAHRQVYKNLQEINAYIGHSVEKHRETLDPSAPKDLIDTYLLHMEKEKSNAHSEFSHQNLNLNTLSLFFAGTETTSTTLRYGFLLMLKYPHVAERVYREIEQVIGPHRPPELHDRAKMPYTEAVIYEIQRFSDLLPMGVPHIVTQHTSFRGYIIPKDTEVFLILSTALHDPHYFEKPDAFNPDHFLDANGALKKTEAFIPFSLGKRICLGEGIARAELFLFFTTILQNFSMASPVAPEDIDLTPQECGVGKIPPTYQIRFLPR
Experimental: (§1) The direct inhibition potential of TBI-166 against P450 was determined using the human marker probe reactions for P450 enzymes in human liver microsomes. Briefly, substrate concentrations in the incubation mixture were selected to be around their Km. Eight different concentrations of TBI-166 (from 0.05 to 10 μM) were incubated in human liver microsomes respectively. Incubations were carried out at 37°C in a shaking water bath. The incubation mixtures contained HLM (0.5 mg/mL), probe substrates in the presence or absence of TBI-166 in PBS (100 mM, containing MgCl2 3 mM, pH 7.4). The reactions were initiated by adding NADPH (1 mM) after preincubated the above mixtures at 37°C for 5 min. Positive controls without TBI-166 were included simultaneously. Stock solutions of the test drugs were prepared in acetonitrile. All measurements were performed in triplicate. […] Protein was removed by centrifugation at 4,000 g for 20 min and analyzed by LC-MS/MS ([Li Z. et al., 2019]).
(§2) Metabolites of probe substrates were separated using a Gemini C18 column (2.1 × 50 mm, i. d, […] particle size; United States). […] The analytes and internal standard were detected by positive ion spray in the multiple-reaction-monitoring modes (MRM).
(§3) IC50 values were calculated using nonlinear regression analysis with GraphPad Prism 7 (GraphPad Software Inc., San Diego, CA). […] All data are expressed as the mean ± SD. […]

CYP2J2 = target: T2, CYP2J2 (Homo sapiens, UniProt P51589); test: as above; format: in vitro ADME; conditions: HLM, CYP2J2 probe substrate
T2 sequence (P51589 1-502): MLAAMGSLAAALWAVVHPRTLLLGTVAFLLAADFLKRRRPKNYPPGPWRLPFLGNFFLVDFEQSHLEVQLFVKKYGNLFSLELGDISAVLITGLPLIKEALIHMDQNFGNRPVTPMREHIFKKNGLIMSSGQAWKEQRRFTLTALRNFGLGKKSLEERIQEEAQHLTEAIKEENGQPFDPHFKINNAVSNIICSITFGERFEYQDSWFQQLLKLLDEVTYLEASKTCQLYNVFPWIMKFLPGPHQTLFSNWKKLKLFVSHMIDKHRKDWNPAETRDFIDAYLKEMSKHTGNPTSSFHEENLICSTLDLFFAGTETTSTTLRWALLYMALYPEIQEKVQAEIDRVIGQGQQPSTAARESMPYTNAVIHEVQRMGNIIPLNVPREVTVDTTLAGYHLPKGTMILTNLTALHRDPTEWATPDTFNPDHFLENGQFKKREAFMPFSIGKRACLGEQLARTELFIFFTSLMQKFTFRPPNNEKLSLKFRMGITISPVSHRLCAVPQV
Experimental: as §1, §2, §3

Chain of CYP3A4 (P08684 2-503): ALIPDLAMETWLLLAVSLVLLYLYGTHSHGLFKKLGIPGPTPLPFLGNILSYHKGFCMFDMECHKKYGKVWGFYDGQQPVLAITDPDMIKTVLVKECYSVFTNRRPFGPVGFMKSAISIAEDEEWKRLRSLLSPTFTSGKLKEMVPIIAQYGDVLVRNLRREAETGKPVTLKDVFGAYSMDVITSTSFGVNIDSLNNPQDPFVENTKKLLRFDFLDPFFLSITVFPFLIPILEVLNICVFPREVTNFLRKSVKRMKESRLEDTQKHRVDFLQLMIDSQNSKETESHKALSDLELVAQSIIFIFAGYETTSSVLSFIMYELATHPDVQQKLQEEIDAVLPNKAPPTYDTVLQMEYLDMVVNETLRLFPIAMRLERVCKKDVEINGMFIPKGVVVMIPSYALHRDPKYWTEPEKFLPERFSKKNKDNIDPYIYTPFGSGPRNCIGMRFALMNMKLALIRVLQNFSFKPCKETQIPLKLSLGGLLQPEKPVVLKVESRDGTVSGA
Chain of CYP2C19 (P33261 whole entry): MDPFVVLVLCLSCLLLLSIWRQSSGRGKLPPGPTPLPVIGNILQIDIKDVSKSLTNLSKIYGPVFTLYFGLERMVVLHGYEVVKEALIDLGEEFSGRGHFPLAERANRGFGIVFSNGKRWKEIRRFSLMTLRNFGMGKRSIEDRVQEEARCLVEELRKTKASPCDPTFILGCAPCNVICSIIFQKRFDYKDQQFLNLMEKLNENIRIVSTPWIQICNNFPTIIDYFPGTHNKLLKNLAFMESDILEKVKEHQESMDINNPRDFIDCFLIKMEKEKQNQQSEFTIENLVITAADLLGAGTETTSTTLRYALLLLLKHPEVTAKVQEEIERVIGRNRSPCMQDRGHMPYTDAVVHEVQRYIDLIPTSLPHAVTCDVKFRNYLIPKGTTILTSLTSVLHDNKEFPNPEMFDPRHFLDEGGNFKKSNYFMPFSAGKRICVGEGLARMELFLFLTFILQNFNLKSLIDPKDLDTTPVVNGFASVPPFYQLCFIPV
Chain of CYP2D6 (P10635 whole entry): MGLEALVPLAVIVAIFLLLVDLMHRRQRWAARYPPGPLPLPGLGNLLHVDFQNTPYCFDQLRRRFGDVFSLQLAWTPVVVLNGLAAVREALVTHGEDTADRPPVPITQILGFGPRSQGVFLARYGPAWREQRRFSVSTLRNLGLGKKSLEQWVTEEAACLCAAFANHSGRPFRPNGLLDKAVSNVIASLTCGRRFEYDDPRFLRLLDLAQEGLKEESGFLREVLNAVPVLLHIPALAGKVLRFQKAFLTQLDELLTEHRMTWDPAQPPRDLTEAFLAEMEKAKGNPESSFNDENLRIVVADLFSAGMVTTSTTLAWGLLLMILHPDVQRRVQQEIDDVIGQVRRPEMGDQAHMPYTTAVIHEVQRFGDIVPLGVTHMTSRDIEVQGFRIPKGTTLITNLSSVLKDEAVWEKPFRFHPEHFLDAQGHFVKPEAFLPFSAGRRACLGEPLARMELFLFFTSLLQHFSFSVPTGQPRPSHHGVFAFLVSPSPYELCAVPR

COc1ncccc1Nc1cc2nc3ccccc3n(-c3ccc(OC(F)(F)F)cc3)c-2cc1=NC1CCC(OC)CC1 (stereo not shown) [TBI-166, Pyrifazimine]
Mean plasma concentration at three hours after oral administration ([1]; BDQ + TBI-166 group, W4): 1383.02 ± 411.59 ng/mL | Mean plasma concentration at three hours after oral administration ([1]; BDQ + TBI-166 group, W8): 1330.40 ± 133.72 ng/mL | Mean plasma concentration at three hours after oral administration ([1]; BDQ group (25 mg/kg), W4, LLOQ 5, 5, 15 ng/mL for BDQ, TBI-166, M2): <LLOQ | Mean plasma concentration at three hours after oral administration ([1]; BDQ group (25 mg/kg), W8, LLOQ 5, 5, 15 ng/mL for BDQ, TBI-166, M2): <LLOQ | Mean plasma concentration at three hours after oral administration ([1]; TBI-166 group (20 mg/kg), W4, LLOQ 5, 5, 15 ng/mL for BDQ, TBI-166, M2): 1375.79 ± 123.54 ng/mL | Mean plasma concentration at three hours after oral administration ([1]; TBI-166 group (20 mg/kg), W8, LLOQ 5, 5, 15 ng/mL for BDQ, TBI-166, M2): 1323.76 ± 311.89 ng/mL | IC50 (CYP2C19): 4.49 µM | IC50 (CYP2D6): 1.6 µM | inhibitor strength class for CYP3A4 pathway (CYP3A4; based on IC50 with testosterone): moderate (1 µM < IC50 < 10 µM) | IC50 (CYP3A4; CYP3A4 MDZ (midazolam as probe substrate)): 17.4 µM | IC50 (CYP3A4; CYP3A4 TEST (testosterone as probe substrate)): 2.65 µM | IC50 (CYP2B6): 4.35 µM | IC50 (CYP2J2): > 50 µM
